Broadly, the EC50 is the concentration giving half of the maximal effect. A higher EC50 goes with weaker potency. What is called IC50 is the point on the concentration scale where inhibition reaches its midpoint. Low values mean greater potency in that assay, high ones weaker potency in that assay.

In experiment [1] the test system is NCI-H226 cells. Kind of experiment: Proliferation and cell viability assay, CellTiter-Glo 2.0 (CTG). It counts as cell-based, human. To be noted: 144 hrs. On the procedure:
(§1) Cell proliferation of a TEAD dependent NF2-null mesothelioma cell line, NCI-H226 was assayed using two different protocols. Results were confirmed in two different TEAD-non-dependent lung cancer cell lines, H23 and H28, were used as non-responsive controls, as indicated:
a) CellTiter-Glo® 2.0 (Promega #G9243). The effect of the TEAD inhibitors disclosed herein on cell proliferation was determined in TEAD1-genetically dependent cell line NCI-H226 (responder cell line) and TEAD-independent cell lines (NCI-H23, HEK293T), as non-responder, negative control. Cells were seeded in 96-well plates (Thermo Scientific #167008) in growth media (RPMI-1640, Gibco #61870-010) for NCI-H226 and NCI-H23 or DMEM (Gibco #31966-021, HEK293T) with […] Heat Inactivated Fetal Bovine Serum (Gibco 10500-064) at 800 (NCI-H226 and HEK-293T) or 2000 (NCI-H23) cells per well at 37° C., […], humidified incubator; 24 hours later, fresh growth media containing test compound or DMSO vehicle was added and incubated with the cells for 144 hrs. TEAD inhibitor stocks were made at a 1000× fold excess in DMSO, and a dose response test compound dose range of 10,000 to 0.1 nM was used. Each treatment was carried out in triplicate. After 144 hrs of treatment, relative cell viability numbers were determined using the CellTiter-Glo 2.0 assay following the manufacturer's instructions. Test plates and CellTiter-Glo 2.0 reagent were allowed to equilibrate to room temperature. CellTiter-Glo 2.0 reagent was added at 1:1 reagent to media ratio to the 96-well cell plates, plates were placed on a plate shaker for 2 minutes and then incubated at room temperature for a further 10 minutes to allow complete cell lysis to occur. The mix was then transferred to white, 96-well luminometer assay plates (Greiner Bio One #655075). Luminescence was quantified using a CLARIOStar Plus multi-mode plate reader (BMG Labtech) in luminescence detection mode with the recommended settings (ultra-Glo pre-set: emission 545-50 nm with autofocus and enhanced dynamic range on). Relative cell density was expressed as a function of inhibitor concentration, with respect to DMSO-only control wells. Data where plotted using GraphPad Prism and IC50 values for the biological effect were calculated using the EC50 non-linear fit function using a sigmoidal, 4-parameter logistic, least squares fit with no constraints.
(§2) For IC50 and EC50 data “A” indicates a value of less than 0.2 μM; the symbol “B” indicates a value in the range of from 0.2 μM up to 1 μM; and the symbol “C” indicates a value of greater than 1 μM. ND: no data.
In general terms: Cellular ATP, detected with luciferase, serves as a proxy for viable cell number.

Experiment [2] deals with NCI-H226 cells. Briefly: Proliferation and cell viability assay, Cell Titer One. The class given is cell-based, human. To be noted: Cell Titer One assay, 6 days. On the procedure: as §1
b) Cell Titer One (Promega, #G3582). The effect of the TEAD inhibitors disclosed herein on cell proliferation was also determined using the Promega Substrate Cell Titer Aqueous One Solution Reagent. The TEAD inhibitors were evaluated for the effects on cell proliferation responder (H226) and non-responder negative control cancer cell lines (CAMA1, H28), as well as non-transformed normal human cells (HUVEC, NHDF). Dissociated cells were resuspend in media (depending on cell line, either in DMEM, RPMI, or EMEM all with 10% FBS, with gentamicin as an antibiotic). Cells were seeded at 100 μL/well at 750 cells per well in 96-well plates and allowed to settle and attach. After an incubation of 24 hrs (37° C., 5% CO2, humidified incubator), 100 μL of test compound-containing media was added. A dilution series of 2000× concentrated stock of test compounds was prepared in DMSO, for final concentrations from 0.1 to 10,000 nM. After addition of test compound-containing media, cells were incubated for 6 days at 37° C., 5% CO2, humidified incubators). To measure cell density, 20 μL of Promega Substrate Cell Titer 96 Aqueous One Solution Reagent (Promega, #G3582) to each well was added according to the manufacturer's instructions. Plates were incubated at 37° C. for usually 3-8 hrs, to reach in the control cells (without compound) an OD of 1.5 at 490 nm. The OD was measured using Vmax [Molecular Devices] spectrophotometer plate reader. Media only-wells were used as background controls and cell densities normalized to DMSO vehicle control. EC50 were taken as the concentration achieving 50% of maximal growth inhibition.
as §2

Setting [3] is: Homo sapiens, NCI-H226, responder cell line.

The structures appear in SMILES notation.

`Cc1nnc(-c2cc([C@@]3(C)CCNC3=O)ccc2Nc2ccc(C(F)(F)F)cc2)o1` (single isomer, unassigned) [Compound 7, 3-methyl-3-(3-(5-methyl-1,3,4-oxadiazol-2-yl)-4-((4-(trifluoromethyl)phenyl)amino)phenyl) pyrrolidin-2-one] showed an EC50 in the experiment with NCI-H226 cells [1] (setting [3]) of 200 to 1000 nM. In the experiment on NCI-H226 cells [2] (Homo sapiens, NCI-H226, 144 h), this molecule gave an IC50 below 200 nM.

`Cn1cnc(-c2cc([C@@]3(C)CCNC3=O)ccc2Nc2ccc(C(F)(F)F)cc2)c1` (single isomer, unassigned) [Compound 6, 3-methyl-3-(3-(1-methyl-1H-imidazol-4-yl)-4-((4-(trifluoromethyl)phenyl)amino)phenyl)pyrrolidin-2-one] showed an EC50 in the experiment with NCI-H226 cells [1] (responder cell line) below 200 nM. The IC50 with NCI-H226 cells [2] was in the range of 200 to 1000 nM. For the molecule `Cn1cnc(-c2cc(CN3CCNC3=O)ccc2Nc2ccc(C(F)(F)F)cc2)c1` [Compound 3, 1-(3-(1-methyl-1H-imidazol-4-yl)-4-((4-(trifluoromethyl)phenyl)amino)benzyl)imidazolidin-2-one], in the experiment with NCI-H226 cells [1] (setting [3]), the concentration for a half-maximal effect (EC50) was below 200 nM. In the experiment on NCI-H226 cells [2] (Homo sapiens, NCI-H226, 144 h), this molecule showed a 50% inhibitory concentration (IC50) below 200 nM. Consider `Cn1nnc(-c2cc(C3(C)CCNC3=O)ccc2Nc2ccc(C(F)(F)F)cc2)n1` (racemic) [Compound 11, 3-methyl-3-(3-(2-methyl-2H-tetrazol-5-yl)-4-((4-(trifluoromethyl)phenyl)amino)phenyl) pyrrolidin-2-one], for which the EC50 with NCI-H226 cells [1] (setting [3]) is below 200 nM. The IC50 in the experiment on NCI-H226 cells [2] (Homo sapiens, NCI-H226, 144 h) is below 200 nM.

For the molecule `Cn1cnc(-c2cc([C@@]3(C)C(=O)CNC3=O)ccc2Nc2ccc(C(F)(F)F)cc2)c1` (stereo in doubt) [Compound 18, 3-methyl-3-(3-(1-methyl-1H-imidazol-4-yl)-4-((4-(trifluoromethyl)phenyl)amino)phenyl) pyrrolidine-2,4-dione], in the experiment on NCI-H226 cells [1] (responder cell line), the 50% effective concentration (EC50) is below 200 nM.

In the experiment on NCI-H226 cells [1] (setting [3]), `CC1(c2ccc(Nc3ccc(C(F)(F)F)cc3)c(-c3cnccn3)c2)CCNC1=O` (centres unmarked) [Compound 13, 3-methyl-3-(3-(pyrazin-2-yl)-4-((4-(trifluoromethyl)phenyl)amino)phenyl) pyrrolidin-2-one] came in with an EC50 below 200 nM. Further, the IC50 in the experiment on NCI-H226 cells [2] (Homo sapiens, NCI-H226, 144 h) is above 1000 nM. Regarding `Cn1cnc(-c2cc(C3(C)CCNC3=O)ccc2Nc2cccc(C(F)(F)F)c2)c1` (centres unmarked) [Compound 22, 3-methyl-3-(3-(1-methyl-1H-imidazol-4-yl)-4-((3-(trifluoromethyl)phenyl)amino)phenyl) pyrrolidin-2-one], the EC50 in the experiment with NCI-H226 cells [1] (setting [3]) was below 200 nM.

In the experiment with NCI-H226 cells [1] (setting [3]), `CC1(c2ccc(Nc3ccc(C(F)(F)F)cc3)c(-c3ncco3)c2)CCNC1=O` (centres unmarked) [Compound 10, 3-methyl-3-(3-(oxazol-2-yl)-4-((4-(trifluoromethyl)phenyl)amino)phenyl) pyrrolidin-2-one] came in with an EC50 below 200 nM. This molecule also showed a half-inhibitory concentration (IC50) in the experiment with NCI-H226 cells [2] (Homo sapiens, NCI-H226, 144 h) below 200 nM. Regarding `Cn1cnc(-c2cc(C3(C)C(=O)NCC3O)ccc2Nc2ccc(C(F)(F)F)cc2)c1` (centres unmarked) [Compound 19, 4-hydroxy-3-methyl-3-(3-(1-methyl-1H-imidazol-4-yl)-4-((4-(trifluoromethyl)phenyl)amino)phenyl) pyrrolidin-2-one], the 50% effective concentration (EC50) in the experiment on NCI-H226 cells [1] (setting [3]) was in the range of 200 to 1000 nM.

`CC(=O)c1ccc(Nc2ccc(C(F)(F)F)cc2)c(-c2cn(C)cn2)c1` [Compound 23, 1-(3-(1-methyl-1H-imidazol-4-yl)-4-((4-(trifluoromethyl)phenyl)amino)phenyl) ethan-1-one] yielded a concentration for a half-maximal effect (EC50) in the experiment with NCI-H226 cells [1] (setting [3]) below 200 nM.

`Cn1cnc(-c2cc(C3(C)NC(=O)NC3=O)ccc2Nc2ccc(C(F)(F)F)cc2)c1` (single isomer, unassigned) [Compound 14, 5-methyl-5-(3-(1-methyl-1H-imidazol-4-yl)-4-((4-(trifluoromethyl)phenyl)amino)phenyl)imidazolidine-2,4-dione]: the EC50 in the experiment on NCI-H226 cells [1] (setting [3]) is below 200 nM. In the experiment with NCI-H226 cells [2], this molecule yielded an IC50 above 1000 nM.

The molecule `Cn1cnc(-c2cc(CN3CC(=O)NC3=O)ccc2Nc2ccc(C(F)(F)F)cc2)c1` [Compound 4, 1-(3-(1-methyl-1H-imidazol-4-yl)-4-((4-(trifluoromethyl)phenyl)amino)benzyl) imidazolidine-2,4-dione] displayed an EC50 with NCI-H226 cells [1] (setting [3]) below 200 nM. In the experiment on NCI-H226 cells [2] (Homo sapiens, NCI-H226, 144 h), the concentration for half-maximal inhibition (IC50) was below 200 nM. Take `Cn1cnc(-c2cc(C3(C)NC(=O)NC3=O)ccc2Nc2ccc(C(F)(F)F)cc2)c1` (racemic) [Compound 9, 5-methyl-5-(3-(1-methyl-1H-imidazol-4-yl)-4-((4-(trifluoromethyl)phenyl)amino)phenyl) imidazolidine-2,4-dione]: the concentration for a half-maximal effect (EC50) in the experiment with NCI-H226 cells [1] (setting [3]) is below 200 nM. In addition, the half-inhibitory concentration (IC50) in the experiment with NCI-H226 cells [2] (Homo sapiens, NCI-H226, 144 h) is below 200 nM. As to `Cc1nnc(-c2cc(C3(C)CCNC3=O)ccc2Nc2ccc(C(F)(F)F)cc2)o1` (single isomer, unassigned) [Compound 8, 3-methyl-3-(3-(5-methyl-1,3,4-oxadiazol-2-yl)-4-((4-(trifluoromethyl)phenyl)amino)phenyl) pyrrolidin-2-one], in the experiment on NCI-H226 cells [1] (setting [3]), the concentration for a half-maximal effect (EC50) is below 200 nM. In the experiment with NCI-H226 cells [2] (Homo sapiens, NCI-H226, 144 h), the IC50 was 200 to 1000 nM. The molecule `Cn1cnc(-c2cc([C@@]3(C)C(=O)CNC3=O)ccc2Nc2ccc(C(F)(F)F)cc2)c1` (stereo in doubt) [Compound 17, 3-methyl-3-(3-(1-methyl-1H-imidazol-4-yl)-4-((4-(trifluoromethyl)phenyl)amino)phenyl) pyrrolidine-2,4-dione] yielded a half-maximal effective concentration (EC50) in the experiment on NCI-H226 cells [1] (setting [3]) below 200 nM. On to `CC1(c2ccc(Nc3ccc(C(F)(F)F)cc3)c(Br)c2)CCNC1=O` (centres unmarked) [Compound 24], for which the EC50 with NCI-H226 cells [1] (setting [3]) was below 200 nM. Regarding `CC1(c2ccc(Nc3ccc(C(F)(F)F)cc3)c(-c3cccnn3)c2)CCNC1=O` (centres unmarked) [Compound 12, 3-methyl-3-(3-(pyridazin-3-yl)-4-((4-(trifluoromethyl)phenyl)amino)phenyl) pyrrolidin-2-one], the concentration for a half-maximal effect (EC50) in the experiment with NCI-H226 cells [1] (setting [3]) is below 200 nM. Moreover, in the experiment on NCI-H226 cells [2] (Homo sapiens, NCI-H226, 144 h), the IC50 is above 1000 nM. Molecule `Cn1cnc(-c2cc(C3(C)C(=O)CNC3=O)ccc2Nc2ccc(C(F)(F)F)cc2)c1` (racemic) [Compound 16, 3-methyl-3-(3-(1-methyl-1H-imidazol-4-yl)-4-((4-(trifluoromethyl)phenyl)amino)phenyl) pyrrolidine-2,4-dione] yielded a 50% effective concentration (EC50) in the experiment on NCI-H226 cells [1] (setting [3]) below 200 nM.
